Measured values taken from US8409581B2, “Compounds for treating amyloidoses” (Affiris AG, priority 2008, dated 2013).

Tests used:
[1] = tested on: monoclonal antibody MV-002; experiment: In vitro binding assay (ELISA) of mimotopes to parental antibody; design: species or system mice; details: peptide coupled to BSA bound to ELISA plates (1 μM); parental antibody MV-002
Protocol: 1. In Vitro Binding Assay (ELISA)
Peptides derived from Phage Display as well as variants thereof were coupled to BSA and bound to ELISA plates (1 μM; as indicated in the respective figures) and subsequently incubated with the monoclonal antibody that was used for the screening procedure to analyse binding capacity of identified peptides.

[2] = tested on: monoclonal antibody MV-002 binding to the original epitope; experiment: In vitro inhibition assay (ELISA); design: species or system mice; details: for inhibition in in vitro inhibition/competition assay: MV-002, original epitope coated on ELISA plates; for Inhibition Capacity (competition code): OD at 5 ug peptide compared to original peptide, MV-002
Protocol: 2. In Vitro Inhibition Assay (ELISA)
Different amounts of peptides (concentrations ranging from 5 μg to 0.03 μg; serial dilutions), derived from Phage Display were incubated with the monoclonal antibody that was used for the screening procedure. Peptides diminishing subsequent binding of the antibody to the original epitope coated on ELISA plates were considered as inhibiting in this assay.

injected peptide = experiment: Mimotope vaccination of mice, serum titer ELISA against injected peptide; format: in vivo, C57/B16 mice; details: 30 μg peptide-KLH, alum, s.c., FIG. 4
Protocol: (§1) Inhibiting as well as non-inhibiting peptides were coupled to KLH and injected into mice (wildtype C57/B16 mice; subcutaneous injection into the flank) together with an appropriate adjuvant (aluminium hydroxide). Animals were vaccinated 3-6 times in biweekly intervals and sera were taken biweekly as well. Titers to injected peptides, as well as to an irrelevant peptide were determined with every serum. Furthermore, titers against the recombinant human Aβ protein, and against original peptides were determined respectively. In general sera were analysed by reaction against peptides coupled to Bovine Serum Albumin (BSA) and recombinant full length proteins which were immobilised on ELISA plates. Titers were determined using anti mouse IgG specific antibodies. For detailed results see FIGS. 4, 5 and 6 respectively.
(§2) Female C57/b16 mice, 5-6 mice per group, were subcutaneously immunized with 30 μg peptide coupled to KLH. Control groups were administered original epitope-KLH conjugates respectively. As adjuvant alum was used (always 1 mg per mouse). […] The in vitro ELISA assay to determine the antibody titer was performed with sera of single mice after each vaccination in a two week interval (see FIGS. 6 and 7 respectively). Titers were calculated as OD max/2 in all figures shown. The wells of the ELISA plate were coated with mimotope-BSA conjugate and an irrelevant peptide-BSA conjugate (negative control). The positive control was performed by reaction of the parental antibody with the respective mimotope-BSA conjugate. The detection was performed with anti-mouse IgG. Additionally, recombinant proteins were immobilised on ELISA plates and sera reacted accordingly. FIGS. 4, 5 and 6 show representative examples for assays used to characterise mimotopes in vivo.

[3] = tested on: p1454 (unrelated sequence); experiment: Mimotope vaccination of mice, serum titer ELISA against irrelevant peptide; format: in vivo, C57/B16 mice; details: 30 μg peptide-KLH, alum, s.c., FIG. 4
Protocol: as §1, §2

original epitope p4377 = experiment: Mimotope vaccination of mice, serum titer ELISA against original epitope; format: in vivo, C57/B16 mice; details: 30 μg peptide-KLH, alum, s.c., FIG. 5
Protocol: as §1, §2

[4] = tested on: amyloid plaques (Aβ40/42) in brain; experiment: Area occupied by amyloid plaques in Tg2576 AD mouse model; format: in vivo; details: Tg2576 mice

For “GEIWFEGC [p4680, MV-002 mimotope peptide]”, the “Binding Capacity (binding code; OD halfmax 1:X, dilution factor of the parental AB)” value (from here on “Binding Capacity”) [1] was 3 (strong binding :>320000), the “inhibition in in vitro inhibition/competition assay” value [2] was “active in in vitro inhibition assays” and the “Inhibition Capacity (competition code)” value [2] was 2 (strong inhibition (as original epitope; OD of peptide below 2, 3 times of original peptide)). The “immune response against injected peptide” value (injected peptide) was “elicited immune responses”, the “unspecific immune response against unrelated sequence (p1454)” value (shortened to “unspecific immune response”) [3] was “failed to induce a relevant unspecific immune response” and the “immune response against the original epitope p4377” value (original epitope p4377) was “mounted detectable immune responses”.
For “HQKMIFAC [p4675, MV-002 mimotope peptide; used as KLH conjugate vaccine in Tg2576 mice]”, the “Binding Capacity” value [1] was 3 (strong binding :>320000), the “inhibition in in vitro inhibition/competition assay” value [2] was “active in in vitro inhibition assays” and the “Inhibition Capacity (competition code)” value [2] was 2 (strong inhibition (as original epitope; OD of peptide below 2, 3 times of original peptide)). For the same sequence, the “immune response against injected peptide” value (injected peptide) was “elicited immune responses”, the “unspecific immune response” value [3] was “failed to induce a relevant unspecific immune response” and the “immune response against the original epitope p4377” value (original epitope p4377) was “mounted detectable immune responses”. The “reduction of area occupied by amyloid plaques following mimotope treatment” value ([4]; group 2 versus PBS-ALUM control) was 31% and the “average area occupied by amyloid plaques” value ([4]; peptide-KLH conjugate adsorbed to ALUM, s.c. 6 times at monthly intervals, mAb 3A5 staining, control 0.35%) was 0.24%.
With “HMRLFFNC [p4670, MV-002 mimotope peptide]” the “Binding Capacity” value [1] was 3 (strong binding :>320000), the “inhibition in in vitro inhibition/competition assay” value [2] was “active in in vitro inhibition assays” and the “Inhibition Capacity (competition code)” value [2] was 1 (Weaker than original epitope (OD of peptide below 4, 6 times of original peptide)). For the same sequence, the “immune response against injected peptide” value (injected peptide) was “elicited immune responses”, the “unspecific immune response” value [3] was “failed to induce a relevant unspecific immune response” and the “immune response against the original epitope p4377” value (original epitope p4377) was “mounted detectable immune responses”.
